Here are results for 38 molecules from ChEMBL document CHEMBL3351690, “Design, synthesis and structure--activity relationship (SAR) studies of imidazo[4,5-b]pyridine derived purine isosteres and their potential as cytotoxic agents” (Eur J Med Chem, 2015).

For series [1], the system named is MDA-MB-231. As to the kind of experiment: Cytotoxicity against paclitaxel-resistant human MDA-MB-231 cells after 24 hrs by MTT assay. The series is classed as functional, cell-based. Particulars: MDA-MB-231, 24 h. Background: Tetrazolium dyes change colour on reduction, which living cells bring about.
Series [2] can be described thus: Stability in human liver microsomes at 1 uM pre-incubated for 5 mins in presence of NADPH and measured after 45 mins by LC/MS method. The series is classed as ADME. Particulars: read-out: Stability. In general terms: Liver microsomes are a subcellular fraction often used to study metabolism.
Series [3] in a line: Stability in mouse liver microsomes at 1 uM pre-incubated for 5 mins in presence of NADPH and measured after 45 mins by LC/MS method. It is filed as ADME. Particulars: read-out: Stability.
Series [4] has as its system MDA-MB-231. Kind of series: Inhibition of cell proliferation of paclitaxel-resistant human MDA-MB-231 cells at 10 uM after 24 hrs by MTT assay. Particulars: MDA-MB-231, 24 h. It is filed as functional.
Series [5] in a line: Cytotoxicity against human MDA435 cells after 24 hrs by MTT assay. Particulars: MDA-MB-435, 24 h. The series is classed as functional, cell-based.
A short description of series [6]: Cytotoxicity against human MES-SA cells after 24 hrs by MTT assay. The series is classed as functional, cell-based.
Series [7] in a line: Cytotoxicity against human HL60 cells after 24 hrs by MTT assay. It is filed as functional, cell-based. Particulars: HL-60, 24 h.
Series [8] can be described thus: Cytotoxicity against human MES-SA/Dx5 cells after 24 hrs by MTT assay. It is filed as functional, cell-based. Particulars: MES-SA/Dx5, 24 h.

In the case of `c1ccc(-c2nc3cccnc3n2C2CCCC2)cc1`, half-maximal inhibition in the series with MDA-MB-231 [1] (IC50) required 3000 nM.

`c1ccc(-c2nc3ncccc3n2C2CCCC2)cc1`: 7000 nM corresponded to half-maximal inhibition in the series with MDA-MB-231 [1] (IC50).

In turn, `Cn1c(-c2ccccc2)nc2cccnc21` gave an IC50 with MDA-MB-231 [1] of 4100 nM.

For the molecule `Fc1ccc(-c2nc3cccnc3n2C2CCCC2)cc1`, in the series with MDA-MB-231 [1], the half-inhibitory concentration (IC50) was determined as 500 nM.

In the series on MDA-MB-231 [1], `Fc1cc(F)cc(-c2nc3cccnc3n2C2CCCC2)c1` came in with a concentration for half-maximal inhibition (IC50) of 138 nM.

In the series on MDA-MB-231 [1], `Fc1cc(F)cc(-c2nc3ncccc3n2C2CCCCC2)c1` displayed an IC50 of 3800 nM.

`Cn1c(-c2cc(F)cc(F)c2)nc2ncccc21` had an IC50 in the series on MDA-MB-231 [1] of 2700 nM.

With `FC(F)(F)c1cc(-c2nc3cccnc3n2C2CCCC2)cc(C(F)(F)F)c1`, half-maximal inhibition with MDA-MB-231 [1] (IC50) was put at 112 nM.

Molecule `FC(F)(F)Oc1cccc(-c2nc3cccnc3n2C2CCCC2)c1` had a half-maximal inhibitory concentration (IC50) in the series with MDA-MB-231 [1] of 262 nM.

As for `Fc1cccc(-c2nc3cccnc3n2C2CCCCC2)c1`, in the series with MDA-MB-231 [1], the midpoint of inhibition, the IC50, lay at 342 nM.

Take `Cc1ccc(-c2nc3cccnc3n2C2CCCCC2)cc1`: half-maximal inhibition in the series on MDA-MB-231 [1] (IC50) required 7000 nM.

For the molecule `CCS(=O)(=O)c1cccc(-c2nc3cccnc3n2C2CCCCC2)c1`, 164 nM corresponded to half-maximal inhibition in the series on MDA-MB-231 [1] (IC50).

For `Cc1cccc(-c2nc3cccnc3n2C2CCCC2)c1Cl`, the midpoint of inhibition in the series on MDA-MB-231 [1], the IC50, lay at 646 nM.

In the series with MDA-MB-231 [1], `CN(C)c1cccc(-c2nc3cccnc3n2C2CCCC2)c1` yielded a half-maximal inhibitory concentration (IC50) of 455 nM.

With `N#Cc1ccc(-c2nc3cccnc3n2C2CCCC2)cc1F`, in the series with MDA-MB-231 [1], half-maximal inhibition (IC50) was put at 2000 nM.

`COc1ccc(-c2nc3cccnc3n2C2CCCCC2)cc1` yielded an IC50 in the series on MDA-MB-231 [1] of 112 nM.

On to `c1ccc(Oc2ccc(-c3nc4cccnc4n3C3CCCC3)cc2)cc1`, for which, in the series with MDA-MB-231 [1], the IC50 is greater than 10000 nM.

For `O=C(O)c1ccc(-c2nc3cccnc3n2C2CCCC2)cc1`, the remaining at 0.75 h, 1 µM in series [2] and in series [3] was 80% each time. This molecule also came in with a concentration for half-maximal inhibition (IC50) with MDA-MB-231 [1] of 600 nM.

Take `COC(=O)c1ccc(-c2nc3cccnc3n2C2CCCC2)cc1`: the remaining at 0.75 h, 1 µM in series [2] and in series [3] was 52% throughout. Further, 350 nM corresponded to half-maximal inhibition in the series on MDA-MB-231 [1] (IC50). In the series with MDA-MB-231 [4], at 10 µM the inhibition was 25%.

For `O=C(NC1CC1)c1ccc(-c2nc3cccnc3n2C2CCCC2)cc1`, the remaining at 0.75 h, 1 µM in series [2] and in series [3] was 42% each time. Further, half-maximal inhibition in the series on MDA-MB-231 [1] (IC50) required 115 nM. Further, the inhibition at 10 µM in the series with MDA-MB-231 [4] worked out at 42%.

In the case of `CCNC(=O)c1ccc(-c2nc3cccnc3n2C2CCCC2)cc1`, the IC50 in the series with MDA-MB-231 [1] came to 320 nM.

As for `O=C(NCc1ccccc1)c1ccc(-c2nc3cccnc3n2C2CCCC2)cc1`, in the series with MDA-MB-231 [1], the midpoint of inhibition, the IC50, lay at 620 nM.

In the series on MDA-MB-231 [1], `NC(=O)c1ccc(-c2nc3cccnc3n2C2CCCC2)cc1` registered a concentration for half-maximal inhibition (IC50) of 8000 nM.

Take `CN(C)C(=O)c1ccc(-c2nc3cccnc3n2C2CCCC2)cc1`: in the series on MDA-MB-231 [1], the IC50 turned out to be 520 nM.

As for `c1cnc2c(c1)nc(-c1cncnc1)n2C1CCCC1`, in the series on MDA-MB-231 [1], the concentration for half-maximal inhibition (IC50) was greater than 10000 nM.

`Cc1nnc(-c2ccc(-c3nc4cccnc4n3C3CCCC3)cc2)o1`: the IC50 in series [5] amounted to 28 nM; in series [6], 25 nM; in series [7], 70 nM; with MDA-MB-231 [1] it was 21 nM; in series [8], 80 nM. The remaining at 0.75 h, 1 µM in series [2] and in series [3] was 75% throughout. In the series on MDA-MB-231 [4], this molecule yielded an inhibition at 10 µM of 77.3%.

Molecule `CN(C)c1ncc(-c2nc3cccnc3n2C2CCCC2)cn1` came in with an IC50 with MDA-MB-231 [1] of 45 nM.

As for `Cc1ccsc1-c1nc2cccnc2n1C1CCCC1`, half-maximal inhibition in the series with MDA-MB-231 [1] (IC50) was put at 138 nM.

Consider `COc1ncc(-c2nc3cccnc3n2C2CCCC2)c(OC)n1`, for which, in the series on MDA-MB-231 [1], the half-maximal inhibitory concentration (IC50) was greater than 10000 nM.

With `c1ccc(Cn2nccc2-c2nc3cccnc3n2C2CCCC2)cc1`, in the series on MDA-MB-231 [1], the midpoint of inhibition, the IC50, lay at 348 nM.

In the case of `Cc1cc(-c2nc3cccnc3n2C2CCCC2)cnc1F`, the midpoint of inhibition in the series on MDA-MB-231 [1], the IC50, lay at 70 nM.

The molecule `COc1ccc(-c2nc3cccnc3n2C2CCCC2)cn1` registered an IC50 in the series with MDA-MB-231 [1] of 219 nM.

`c1cnc2c(c1)nc(-c1ccc3c(c1)OCC3)n2C1CCCC1`: in the series on MDA-MB-231 [1], 513 nM corresponded to half-maximal inhibition (IC50).

For `Cn1ccc2cc(-c3nc4cccnc4n3C3CCCC3)ccc21`, the midpoint of inhibition in the series on MDA-MB-231 [1], the IC50, lay at 90 nM.

`c1cnc2c(c1)nc(-c1ccc(-c3nnn[nH]3)cc1)n2C1CCCC1` came in with an IC50 with MDA-MB-231 [1] of 765 nM.

In the case of `c1cncc(-c2ccc(-c3nc4cccnc4n3C3CCCC3)cc2)c1`, the IC50 in the series with MDA-MB-231 [1] was greater than 10000 nM.

For the molecule `c1cnc2c(c1)nc(-c1ccc(-c3nnco3)cc1)n2C1CCCC1`, half-maximal inhibition in the series with MDA-MB-231 [1] (IC50) required 87 nM.

Turning to `CC(=O)O[C@H]1C(=O)[C@@]2(C)[C@H]([C@H](OC(=O)c3ccccc3)[C@]3(O)C[C@H](OC(=O)[C@H](O)[C@@H](NC(=O)c4ccccc4)c4ccccc4)C(C)=C1C3(C)C)[C@]1(OC(C)=O)CO[C@@H]1C[C@@H]2O` [PACLITAXEL], the half-maximal inhibitory concentration (IC50) in series [6] worked out at 8 nM; in series [7] it was 7 nM; in the series on MDA-MB-231 [1] it was 457 nM; in series [8] it was 5100 nM.

A word on the IC50: it is the point on the concentration scale where inhibition reaches its midpoint. As a reminder, the inhibition is the percentage by which the read-out fell short of the control.
